Measured values as given in patent US20260209218A1, “3-PHENYLQUINAZOLINONES AS NOVEL ANTI-CANCER THERAPY” (HELMHOLTZ ZENTRUM MÜNCHEN - DEUTSCHES FORSCHUNGSZENTRUM FÜR …, priority 2022, published 2026).

Target: T1, hFSP1 (Homo sapiens, UniProt Q9BRQ8)
T1 construct: expressed in transfected cells; host or cells: Gpx4 KO isogenic fibroblasts (Pfa1, mouse) overexpressing hFSP1
T1 sequence (Q9BRQ8 1-373): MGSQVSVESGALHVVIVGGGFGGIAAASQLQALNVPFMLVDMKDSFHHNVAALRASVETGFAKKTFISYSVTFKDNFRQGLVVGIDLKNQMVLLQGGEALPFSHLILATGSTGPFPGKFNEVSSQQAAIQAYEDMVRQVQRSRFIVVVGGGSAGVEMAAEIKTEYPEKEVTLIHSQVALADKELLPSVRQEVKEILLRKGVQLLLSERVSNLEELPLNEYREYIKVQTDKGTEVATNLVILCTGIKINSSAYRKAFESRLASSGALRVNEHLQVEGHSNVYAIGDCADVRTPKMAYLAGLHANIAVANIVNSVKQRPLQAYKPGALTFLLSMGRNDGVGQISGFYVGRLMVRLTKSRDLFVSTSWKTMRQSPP
Test: Dose-response of screening hits, cell survival by Aquabluer in hFSP1 GPX4 KO cells
Format: cell-based
Settings: FSP1 overexpressing cells lacking GPX4
Procedure: To identify new small molecule inhibitors that induce ferroptosis in FSP1 overexpressing cells lacking GPX4, hFSP1 GPX4 KO as well as FSP1 GPX4 wild type (WT) isogenic fibroblasts were screened using a subtractive high throughput screening (HTS) approach. As such, both cell lines were plated in parallel and screened against HMGU libraries at a fixed concentration of 10 μM. Cell survival was evaluated using the LIVE/DEAD assay Aquabluer. The percentage (%) of viable cells was determined for both wild type (WT) and knockout (KO) cell lines. Hits were considered as compounds that induce ferroptosis in KO but not in WT cells. Subsequently, positive hits were assayed in a dose-response manner to establish EC50 values of respective compounds (see Table 2).

Row | SMILES | EC50 [µM]
1 | Cc1ccc(CC(=O)Nc2ccc(-n3c(C)nc4ccccc4c3=O)cc2C)cc1 [Compound 21] | > 1
2 | COc1cc(CC(=O)Nc2ccc(-n3c(C(F)(F)F)nc4ccccc4c3=O)cc2)cc(OC)c1OC [Compound 40] | < 1
3 | COc1cc(CC(=O)Nc2ccc(-n3c(C(F)F)nc4ccccc4c3=O)cc2)cc(OC)c1OC [Compound 41] | > 1
4 | Cc1cccc(CC(=O)Nc2ccc(-n3c(C)nc4ccccc4c3=O)cc2)c1 [Compound 15] | < 1
5 | COc1ccc(CC(=O)Nc2ccc(-n3c(C)nc4ccccc4c3=O)cc2C)cc1 [Compound 25] | > 1
6 | Cc1nc2ccccc2c(=O)n1-c1ccc(NS(=O)(=O)Cc2ccccc2)cc1 [Compound 72] | > 1
7 | COc1cc(C(=O)Nc2cccc(-n3c(C)nc4ccccc4c3=O)c2)cc(OC)c1OC [Compound 6] | < 1
8 | Cc1nc2cc(F)c(F)cc2c(=O)n1-c1ccc(NC(=O)Cc2ccccn2)cc1 [Compound 83] | > 1
9 | Cc1cc(-n2c(C)nc3ccccc3c2=O)ccc1NC(=O)Cc1ccc(Cl)cc1 [Compound 26] | < 1
10 | COc1ccc(CC(=O)Nc2ccc(-n3c(C)nc4ccccc4c3=O)cc2)cc1Cl [Compound 7] | < 1
11 | CCOc1ccc(CC(=O)Nc2ccc(-n3c(C)nc4ccccc4c3=O)cc2)cc1 [Compound 2] | > 1
12 | Cc1cc(-n2c(C)nc3ccccc3c2=O)ccc1NC(=O)Cc1ccc(F)cc1 [Compound 24] | > 1
13 | Cc1nc2cc(F)c(F)cc2c(=O)n1-c1ccc(NC(=O)Cc2cc(C(F)(F)F)cc(C(F)(F)F)c2)cc1 [Compound 86] | < 0.1
14 | Cc1nc2cc(F)c(F)cc2c(=O)n1-c1ccc(NC(=O)Cc2ccccc2)cc1 [Compound 82] | < 1
15 | Cc1cc(CC(=O)Nc2ccc(-n3c(C)nc4cc(F)c(F)cc4c3=O)cc2)cc(C)n1 [Compound 85] | > 1
16 | COc1cccc(CC(=O)Nc2ccc(-n3c(C)nc4ccccc4c3=O)cc2C)c1 [Compound 28] | > 1
17 | Cc1nc2ccccc2c(=O)n1-c1ccc(NC(=O)Cc2ccc3c(c2)CCC3)cc1 [Compound 64] | < 0.1
18 | Cc1ccccc1CC(=O)Nc1ccc(-n2c(C)nc3ccccc3c2=O)cc1C [Compound 23] | > 1
19 | COc1cc(CC(=O)Nc2ccc(-n3c(C)nc4cc(F)c(F)cc4c3=O)cc2)cc(OC)c1OC [Compound 46] | < 0.1
20 | CCOc1cc(C(=O)Nc2ccc(-n3c(C)nc4ccccc4c3=O)cc2)cc(OCC)c1OCC [Compound 10] | < 1
21 | COc1ccc(CC(=O)Nc2ccc(-n3c(C)nc4ccccc4c3=O)cc2C)c(Cl)c1 [Compound 34] | < 1
22 | Cc1nc2ccccc2c(=O)n1-c1ccc(NC(=O)Cc2c(F)cccc2Cl)cc1 [Compound 27] | < 1
23 | COc1ccc(CC(=O)Nc2ccc(-n3c(C)nc4ccccc4c3=O)cc2C)cc1Cl [Compound 33] | < 1
24 | Cc1cc(-n2c(C)nc3ccccc3c2=O)ccc1NC(=O)Cc1c(F)cccc1Cl [Compound 32] | < 1
25 | Cc1ccccc1CC(=O)Nc1ccc(-n2c(C)nc3ccccc3c2=O)cc1 [Compound 16] | > 1
26 | Cc1nc2ccccc2c(=O)n1-c1ccc(NC(=O)Cc2ccccc2Cl)cc1 [Compound 20] | > 1
27 | Cc1ccc(CC(=O)Nc2ccc(-n3c(C)nc4ccccc4c3=O)cc2)cc1 [Compound 14] | < 1

Row | SMILES | EC50 [µM]
28 | COc1cc(CC(=O)Nc2ccc(-n3c(C)nc4sccc4c3=O)cc2)cc(OC)c1OC [Compound 69] | < 1
29 | Cc1nc2ccccc2c(=O)n1-c1ccc(N(C)S(=O)(=O)Cc2ccccc2)cc1 [Compound 73] | > 1
30 | COc1cccc(CC(=O)Nc2ccc(-n3c(C)nc4ccccc4c3=O)cc2)c1 [Compound 8] | > 1
31 | Cc1nc2ccccc2c(=O)n1-c1ccc(NC(=O)Cc2ccc(F)cc2)cc1 [Compound 17] | > 1
32 | Cc1cc(CC(=O)Nc2ccc(-n3c(C)nc4cc(F)c(F)cc4c3=O)cc2)cc(C)c1C [Compound 75] | < 0.1
33 | COc1cc(CC(=O)Nc2ccc(-n3c(C)nc4ccccc4c3=O)cc2C)cc(OC)c1OC [Compound 9] | < 1
34 | COc1cc(C(=O)Nc2ccc(-n3c(C)nc4ccccc4c3=O)cc2)cc(OC)c1OC [Compound 3] | > 1
35 | Cc1cccc(CC(=O)Nc2ccc(-n3c(C)nc4ccccc4c3=O)cc2C)c1 [Compound 22] | > 1
36 | Cc1cc(-n2c(C)nc3ccccc3c2=O)ccc1NC(=O)Cc1ccccc1F [Compound 29] | > 1
37 | COc1cc(CC(=O)Nc2ccc(-n3c(CO)nc4ccccc4c3=O)cc2)cc(OC)c1OC [Compound 71] | > 1
38 | COc1ccc(CC(=O)Nc2cccc(-n3c(C)nc4ccccc4c3=O)c2)cc1 [Compound 5] | > 1
39 | CCOc1ccc(CC(=O)Nc2ccc(-n3c(C)nc4ccccc4c3=O)cc2C)cc1 [Compound 12] | < 1
40 | COc1ccc(CC(=O)Nc2ccc(-n3c(C)nc4ccccc4c3=O)cc2)cc1 [Compound 4] | > 1
41 | CCC(C(=O)Nc1ccc(-n2c(C)nc3ccccc3c2=O)cc1)c1ccccc1 (stereo not drawn) [Compound 19] | < 1
42 | COc1ccc(CC(=O)Nc2ccc3nc(C)n(-c4ccc(F)cc4)c(=O)c3c2)cc1OC [Compound 11] | > 1
43 | COc1ccc(CC(=O)Nc2ccc(-n3c(C)nc4ccccc4c3=O)cc2)c(Cl)c1 [Compound 31] | < 1
44 | Cc1nc2cc(F)c(F)cc2c(=O)n1-c1ccc(NC(=O)Cc2cc(F)c(F)c(F)c2)cc1 [Compound 76] | < 1
45 | COc1cc(CC(=O)Nc2ccc(-n3c(CF)nc4ccccc4c3=O)cc2)cc(OC)c1OC [Compound 42] | < 1
46 | COc1cc(CC(=O)Nc2ccc(-n3c(C)nc4cnccc4c3=O)cc2)cc(OC)c1OC [Compound 49] | > 1
47 | Cc1nc2cc(F)c(F)cc2c(=O)n1-c1ccc(NC(=O)Cc2ccc(C(F)(F)F)cc2)cc1 [Compound 74] | < 1
48 | Cc1cc(-n2c(C)nc3ccccc3c2=O)ccc1NC(=O)Cc1ccccc1Cl [Compound 30] | > 1
49 | Cc1nc2cc(F)c(F)cc2c(=O)n1-c1ccc(NC(=O)Cc2cccnc2)cc1 [Compound 84] | > 1
50 | Cc1nc2cc(F)c(F)cc2c(=O)n1-c1ccc(NC(=O)Cc2ccc3c(c2)CCC3)cc1 [Compound 77] | < 0.1
51 | COc1cc(CC(=O)Nc2ccc(-n3c(C)nc4ccncc4c3=O)cc2)cc(OC)c1OC [Compound 50] | > 1
52 | COc1cc(CC(=O)Nc2cnc(-n3c(C)nc4ccccc4c3=O)cn2)cc(OC)c1OC [Compound 63] | > 1
53 | Cc1nc2ccccc2c(=O)n1-c1ccc(NC(=O)Cc2ccc(Cl)cc2)cc1 [Compound 18] | < 1

Test system: not listed separately
Test: Microsomal stability, mouse liver microsomes
Format: in vitro ADME
Settings: Balb/c, pH 7.4, 0.42 mg microsomal protein per ml, 37° C., five time points over 40 minutes
Procedure: (§1) The objective of this study was to determine metabolic stability of 4 test articles and reference compounds in human and mouse liver microsomes at five time points over 40 minutes using HPLC-MS. Metabolic stability is defined as the percentage of parent compound lost over time in the presence of a metabolically active test system.
(§2) Microsomal incubations were carried out in 96-well plates in 5 aliquots of 30 μL each (one for each time point). Liver microsomal incubation medium comprised of phosphate buffer (100 mM, pH 7.4), MgCl2 (3.3 mM), NADPH (3 mM), glucose-6-phosphate (5.3 mM), glucose-6-phosphate dehydrogenase (0.67 units/ml) with 0.42 mg of liver microsomal protein per ml. In the control reactions, the NADPH-cofactor system was substituted with phosphate buffer. Test compounds (2 μM, final solvent concentration 1.6%) were incubated with microsomes at 37° C., shaking at 100 rpm. Five time points over 40 minutes were analyzed. The reactions were stopped by adding 5 volumes of acetonitrile with internal standard to incubation aliquots, followed by protein sedimentation by centrifuging at 5500 rpm for 5 minutes. Each reaction was performed in duplicates. Supernatants were analyzed using the HPLC system coupled with a tandem mass spectrometer.
(§3) The elimination constant (kel), half-life (t1,2), and intrinsic clearance (Clint) were determined in a plot of In(AUC) versus time, using linear regression analysis:^1

Row | SMILES | microsomal CLint at 2 μM [µL/min/mg]
54 | Cc1nc2cc(F)c(F)cc2c(=O)n1-c1ccc(NC(=O)Cc2ccccc2)cc1 [Compound 82] | 15
55 | Cc1nc2cc(F)c(F)cc2c(=O)n1-c1ccc(NC(=O)Cc2ccc(C(F)(F)F)cc2)cc1 [Compound 74] | 7

Test system: not listed separately
Test: Microsomal stability, human liver microsomes
Format: in vitro ADME
Settings: pH 7.4, 0.42 mg microsomal protein per ml, 37° C., five time points over 40 minutes
Procedure: as §1, §2, §3

Row | SMILES | microsomal CLint at 2 μM [µL/min/mg]
56 | Cc1nc2cc(F)c(F)cc2c(=O)n1-c1ccc(NC(=O)Cc2ccccc2)cc1 [Compound 82] | 4
57 | Cc1nc2cc(F)c(F)cc2c(=O)n1-c1ccc(NC(=O)Cc2ccc(C(F)(F)F)cc2)cc1 [Compound 74] | 7
